Results as given in patent publication US20240124434A1, “ATF6 INHIBITORS AND USES THEREOF” (Altos Labs, Inc., priority 2018, published 2024).
Converted amounts (≈) assume the structure as drawn.

Experiments:
[1] = Kinetic solubility (nephelometry); format: physicochemical; settings: aqueous buffer, kinetic from dmso stock; PBS pH 7.4, 1% DMSO, 1 hour at 37° C., light scattering at 625 nm
Procedure: Concentration (μM) was then calculated by segmental regression. Amiodarone (#A8423 Aldrich) was used as positive control.

[2] = In vitro microsomal stability, rat liver microsomes; format: in vitro ADME; settings: for microsomal CLint at […], 1 µM: intrinsic clearance, read-out: Clint @ rLM; for Rem. @ rLM (%): remaining fraction after 30 min, 1 μM compound, 0.5 mg/mL rat liver microsomes, 1 mM NADPH
Procedure: (§1) Compounds were incubated at a final concentration of 1 μM with 0.5 mg/mL human liver microsomes (hLM) (#HMMCPL; Thermo), mouse liver microsomes (mLM) (#MSMCPL; Thermo) or rat liver microsomes (rLM) (#RTMCPL; Thermo) and 1 mM reduced dihydronicotinamide-adenine dinucleotide phosphate (NADPH) (#N1630; Sigma) in 100 mM phosphate buffer (pH 7.4) at 37° C. The reactions were terminated at 0, 5, 15 and 30 min by the addition of cold acetonitrile containing 50 ng/mL propranolol as an internal standard. […] Verapamil hydrochloride (#V4369 Aldrich) was used as a positive control in all studies.

[3] = mouse, in vivo, po, 10 mg/kg; for AUCExtr [%] / F [%] / Vz: Balb/c
Procedure: (§3) Tested compounds were formulated at 1 mg/mL as a dosing solution for oral administration in vehicle A: 10% dimethylacetamide (DMAC), 20% propylene glycol, and 40% PEG-400 or vehicle B: 10% Kolliphor® EL and 10% ethanol (EtOH).
(§4) Animals were acclimated for a minimum period of 4 days upon arrival at the testing facility.
(§5) At the day of study, mice were weighed, identified by marking the tail with numbers using a non-toxic permanent marker, and designated into ten experimental groups (n=3 per group).
(§6) Non-dosed mice were used to collect samples of zero time points. […] Blood samples were centrifuged immediately at 9,000 g at 4° C. for 5 minutes and then plasmas were separated. Plasma samples were placed into individually labeled cryovials and stored in a −80° C. freezer until LC/MS/MS bioanalysis.
(§7) The bioanalysis of plasma samples was conducted with a QTRAP 4500 triple quadrupole mass spectrometer (Applied Biosystems SCIEX) in the positive ion mode and interfaced with an Ekspert Ultra LC100 UPLC System (Eksigent). Calibration standards (0.01 to 10 μM) and QCs (0.02, 0.2 and 2.0 μM) were prepared from naïve mouse plasma in parallel with mouse plasma study samples (60 μL) by precipitation with three volumes of ice cold internal standard solution (acetonitrile containing 20 μM of theophylline). The precipitated samples were centrifuged at 6,100 g for 30 min. Following centrifugation, an aliquot of each supernatant was transferred to an autosampler plate and diluted with two volumes of aqueous mobile phase (0.1% formic acid in water). Samples were injected onto a reverse phase analytical column (YMC Triart C18; 2.0×50 mm; 1.9 μm; YMC CO) and eluted with a gradient of 0.1% formic acid in Acetonitrile. Assayed test compound and internal standards were monitored by a multiple reaction monitoring (MRM) experiment using an Analyst software (v1.6.2, Applied Biosystems SCIEX). Quantitation was conducted using a MultiQuant software (v2.1, Applied Biosystems SCIEX) and the resulting calibration curve was fitted with a linear regression and 1/x weighting. The lower limits of quantitation were 1<LLQ <5 ng/mL.

[4] = molecular target: CYP2C9 (Homo sapiens (Human), UniProt P11712); experiment: CYP inhibition in human liver microsomes; settings: read-out: CYP-2C9; human liver microsomes; probe substrate diclofenac
Chain of CYP2C9 (P11712 whole entry, canonical isoform): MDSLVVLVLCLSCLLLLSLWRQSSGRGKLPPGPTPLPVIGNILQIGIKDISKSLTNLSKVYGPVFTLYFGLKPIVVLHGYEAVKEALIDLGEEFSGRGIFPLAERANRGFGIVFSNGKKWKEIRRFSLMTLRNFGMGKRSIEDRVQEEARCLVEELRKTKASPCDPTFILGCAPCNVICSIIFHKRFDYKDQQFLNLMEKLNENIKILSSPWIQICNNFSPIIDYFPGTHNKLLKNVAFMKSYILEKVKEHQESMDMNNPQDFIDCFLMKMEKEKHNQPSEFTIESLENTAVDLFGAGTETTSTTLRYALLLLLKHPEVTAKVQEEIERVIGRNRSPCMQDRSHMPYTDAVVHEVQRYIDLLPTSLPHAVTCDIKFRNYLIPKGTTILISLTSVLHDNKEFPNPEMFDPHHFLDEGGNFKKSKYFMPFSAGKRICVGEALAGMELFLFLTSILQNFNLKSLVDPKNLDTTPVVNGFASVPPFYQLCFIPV
Procedure: (§2) CYP inhibition by test compounds in human liver microsomes (HLM) for seven major CYP450 isoforms CYP1A2, CYP2C9, CYP2D6, CYP2B6, CYP2C8, CYP2C19 and CYP3A4 were assessed. […] 50 μM phenacetin, 2 μM midazolam, 5 μM diclofenac, 50 μM mephenytoin, 80 μM bupropion, and 5 μM dextromethorphan were used as probe substrates of CYP1A2, CYP3A4, CYP2C9, CYP2C19, CYP2B6, and CYP2D6, respectively. The incubation times were 20 min for […], CYP2D6, CYP2C9, CYP2B6, and CYP2C8; 40 min for CYP2C19; and 10 min for CYP 3A4. Following incubations, the reactions were terminated with acetonitrile containing internal standard. The samples were centrifuged and the supernatants were analyzed for the formation of metabolites (1-hydroxymidazolam (CYP3A4), 4-hydroxydiclofenac (CYP2C9), 4-hydroxymephenytoin (CYP2C19) and dextrorphan (CYP2D6), hydroxybupropion (CYP2B6), acetaminophen (CYP1A2), desethylamodiaquine (CYP2C8)) by LC/MS/MS.

[5] = molecular target: CYP2B6 (Homo sapiens (Human), UniProt P20813); experiment: CYP inhibition in human liver microsomes; settings: read-out: CYP-2B6; human liver microsomes; probe substrate bupropion
Chain of CYP2B6 (P20813 whole entry): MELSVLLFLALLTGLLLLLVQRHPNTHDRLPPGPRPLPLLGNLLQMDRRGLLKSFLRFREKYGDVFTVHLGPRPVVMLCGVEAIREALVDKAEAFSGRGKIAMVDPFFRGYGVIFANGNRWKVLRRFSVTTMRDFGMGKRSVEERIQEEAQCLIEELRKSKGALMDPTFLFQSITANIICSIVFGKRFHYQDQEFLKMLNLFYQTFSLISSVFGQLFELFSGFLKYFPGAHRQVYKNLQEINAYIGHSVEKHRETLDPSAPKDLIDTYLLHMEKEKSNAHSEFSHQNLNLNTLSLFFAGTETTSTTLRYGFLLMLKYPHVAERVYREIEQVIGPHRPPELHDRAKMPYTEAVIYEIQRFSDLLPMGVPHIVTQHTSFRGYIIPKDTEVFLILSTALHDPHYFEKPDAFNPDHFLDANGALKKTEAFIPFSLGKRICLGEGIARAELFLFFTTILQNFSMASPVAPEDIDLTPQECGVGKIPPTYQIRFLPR
Procedure: as §2

[6] = molecular target: CYP2C19 (Homo sapiens (Human), UniProt P33261); experiment: CYP inhibition in human liver microsomes; settings: read-out: CYP-2C19; human liver microsomes; probe substrate mephenytoin
Chain of CYP2C19 (P33261 whole entry): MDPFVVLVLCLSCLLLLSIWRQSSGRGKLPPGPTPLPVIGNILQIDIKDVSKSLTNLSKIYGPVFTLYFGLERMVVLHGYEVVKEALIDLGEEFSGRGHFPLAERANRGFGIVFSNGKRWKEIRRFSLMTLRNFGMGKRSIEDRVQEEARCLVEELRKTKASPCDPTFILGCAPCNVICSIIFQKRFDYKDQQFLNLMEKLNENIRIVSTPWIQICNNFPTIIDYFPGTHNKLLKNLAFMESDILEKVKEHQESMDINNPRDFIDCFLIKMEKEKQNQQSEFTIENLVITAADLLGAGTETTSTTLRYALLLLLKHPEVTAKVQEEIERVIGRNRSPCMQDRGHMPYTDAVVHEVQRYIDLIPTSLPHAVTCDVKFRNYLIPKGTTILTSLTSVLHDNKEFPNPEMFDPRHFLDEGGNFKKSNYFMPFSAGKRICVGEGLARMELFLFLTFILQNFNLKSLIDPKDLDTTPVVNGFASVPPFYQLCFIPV
Procedure: as §2

[7] = molecular target: CYP2D6 (Homo sapiens (Human), UniProt P10635); experiment: CYP inhibition in human liver microsomes; settings: read-out: CYP-2D6; human liver microsomes; probe substrate dextromethorphan
Chain of CYP2D6 (P10635 whole entry): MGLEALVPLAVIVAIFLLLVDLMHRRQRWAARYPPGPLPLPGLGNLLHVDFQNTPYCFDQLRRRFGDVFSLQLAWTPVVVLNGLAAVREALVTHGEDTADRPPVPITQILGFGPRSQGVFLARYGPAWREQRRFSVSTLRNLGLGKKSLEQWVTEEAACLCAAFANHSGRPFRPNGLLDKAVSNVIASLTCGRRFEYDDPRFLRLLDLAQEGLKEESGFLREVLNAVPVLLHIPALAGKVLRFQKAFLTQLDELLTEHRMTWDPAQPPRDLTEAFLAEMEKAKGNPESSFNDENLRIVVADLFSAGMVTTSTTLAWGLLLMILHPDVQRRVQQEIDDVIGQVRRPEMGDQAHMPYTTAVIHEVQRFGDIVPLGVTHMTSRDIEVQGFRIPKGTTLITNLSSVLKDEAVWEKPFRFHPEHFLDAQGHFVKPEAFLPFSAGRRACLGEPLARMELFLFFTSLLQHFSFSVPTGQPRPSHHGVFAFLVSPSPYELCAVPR
Procedure: as §2

[8] = molecular target: CYP2C8 (Homo sapiens (Human), UniProt P10632); experiment: CYP inhibition in human liver microsomes; settings: read-out: CYP-2C8, metabolite desethylamodiaquine
Chain of CYP2C8 (P10632 whole entry): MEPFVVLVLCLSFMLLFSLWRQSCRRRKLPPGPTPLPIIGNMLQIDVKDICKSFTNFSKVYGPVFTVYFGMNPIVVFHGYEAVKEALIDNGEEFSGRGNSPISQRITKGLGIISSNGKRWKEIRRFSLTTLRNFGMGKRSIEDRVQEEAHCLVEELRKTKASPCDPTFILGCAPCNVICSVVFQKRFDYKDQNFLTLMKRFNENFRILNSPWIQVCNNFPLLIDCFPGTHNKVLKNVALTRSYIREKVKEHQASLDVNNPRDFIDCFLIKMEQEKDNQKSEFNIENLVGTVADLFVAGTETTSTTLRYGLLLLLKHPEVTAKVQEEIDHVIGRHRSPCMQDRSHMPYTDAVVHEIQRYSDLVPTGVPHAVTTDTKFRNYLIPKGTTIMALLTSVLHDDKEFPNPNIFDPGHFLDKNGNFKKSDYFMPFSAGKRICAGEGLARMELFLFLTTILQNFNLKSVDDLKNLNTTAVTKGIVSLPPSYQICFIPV
Procedure: as §2

[9] = molecular target: CYP3A4 (Homo sapiens (Human), UniProt P08684); experiment: CYP inhibition in human liver microsomes; settings: read-out: CYP-3A4; human liver microsomes; probe substrate midazolam
Chain of CYP3A4 (P08684 whole entry): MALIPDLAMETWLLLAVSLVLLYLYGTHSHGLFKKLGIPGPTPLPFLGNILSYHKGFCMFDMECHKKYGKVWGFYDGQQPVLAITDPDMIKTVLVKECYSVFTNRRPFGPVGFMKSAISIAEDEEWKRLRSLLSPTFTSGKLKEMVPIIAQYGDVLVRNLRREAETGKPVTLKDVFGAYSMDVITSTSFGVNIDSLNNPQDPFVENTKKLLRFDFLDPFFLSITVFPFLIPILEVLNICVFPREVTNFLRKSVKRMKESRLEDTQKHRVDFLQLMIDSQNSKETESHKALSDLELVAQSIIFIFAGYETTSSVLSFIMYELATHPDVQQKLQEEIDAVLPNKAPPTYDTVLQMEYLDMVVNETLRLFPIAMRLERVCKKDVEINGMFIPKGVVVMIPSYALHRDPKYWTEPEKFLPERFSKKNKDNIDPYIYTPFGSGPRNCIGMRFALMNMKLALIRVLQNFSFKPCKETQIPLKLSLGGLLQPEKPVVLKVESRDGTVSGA
Procedure: as §2

[10] = In vitro microsomal stability, human liver microsomes; format: in vitro ADME; settings: for half-life at […], 1 µM: human, read-out: T1/2 @ hLM; for half-life at […], 1 µM / microsomal CLint at […], 1 µM: human liver microsomes, pH 7.4; for microsomal CLint at […], 1 µM: intrinsic clearance, read-out: Clint @ hLM; for Rem. @ hLM (%): remaining fraction after 30 min, 1 μM compound, 0.5 mg/mL human liver microsomes, 1 mM NADPH
Procedure: as §1

[11] = In vitro microsomal stability, mouse liver microsomes; format: in vitro ADME; settings: for microsomal CLint at […], 1 µM: intrinsic clearance, read-out: Clint @ mLM; for Rem. @ mLM (%): remaining fraction after 30 min, 1 μM compound, 0.5 mg/mL mouse liver microsomes, 1 mM NADPH
Procedure: as §1

[12] = in vivo; settings: Balb/c, mouse, po, 10 mg/kg
Procedure: as §3, §4, §5, §6, §7

[13] = system: ATF6; experiment: ERSE ATF6-luciferase reporter assay (thapsigargin-induced ER stress); format: cell-based, human; settings: Homo sapiens, U2OS, thapsigargin-induced ER stress, U2-OS ATF6 luc reporter cells; for inhibition at 1 µM: 8 h, read-out: Inh. ATF6-Luc @ 1 μM [%], 1 μM test compound, 8 hr; for IC50: read-out: IC50 ATF6-Luc reporter [μM], dose-response 30 μM to 1 nM
[14] = rat, rat liver microsomes, pH 7.4, read-out: T1/2 @ rLM
[15] = mouse, mouse liver microsomes, pH 7.4, read-out: T1/2 @ mLM

Row | SMILES | solubility kinetic at 1 h [1] [µM] | microsomal CLint at […], 1 µM ([2]; pH 7.4, rat liver microsomes) [µL/min/mg] | half-life at […], 1 µM [2, 14] [h] | Rem. @ rLM (%) [2] [%] | AUCExtr [%] [3] [%] | F [%] [3] [%] | IC50 [4] [µM] | IC50 [5] [µM] | IC50 [6] [µM] | IC50 [7] [µM] | IC50 [8] [µM] | IC50 [9] [µM] | half-life at […], 1 µM [10] [h] | microsomal CLint at […], 1 µM [10] [µL/min/mg] | Rem. @ hLM (%) [10] [%] | half-life at […], 1 µM [11, 15] [h] | microsomal CLint at […], 1 µM ([11]; pH 7.4, mouse liver microsomes) [µL/min/mg] | Rem. @ mLM (%) [11] [%] | inhibition at 1 µM [13] [%] | IC50 [13] [µM] | also measured
1 | C[C@H](c1ccc(C(F)(F)F)cc1C(F)(F)F)n1cc(NC(=O)c2nnc(-c3ccccn3)s2)cn1 [Compound 123, (R)—N-(1-(1-(2,4-bis(trifluoromethyl)phenyl)ethyl)-1H-pyrazol-4-yl)-5-(pyridin-2-yl)-1,3,4-thiadiazole-2-carboxamide] | 1.17 (≈ 0.6 µg/mL) | 10.7 | 2.17 | 81.5 | 37.7 | 64.1 | 31.9 | 42.9 | > 50 | > 50 | 33.3 | > 50 | 7.67 | 3 | 95.5 | 3.22 | 7.2 | 89.7 | > 50 | < 1 | Vz [3]: 4.43 L/kg; Last time point for AUClast [3]: 24 h; AUC(0-inf) [12]: 62200 ng·h/mL; AUC(0-t) [12]: 38800 ng·h/mL; Cmax [12]: 4560 ng/mL; Tmax [12]: 1 h; half-life [12]: 19.1 h
2 | C[C@H](c1ccc(C(F)(F)F)cc1C(F)(F)F)n1cc(NC(=O)c2cc(-c3ccccn3)no2)cn1 [Compound 76, (R)—N-(1-(1-(2,4-bis(trifluoromethyl)phenyl)ethyl)-1H-pyrazol-4-yl)-3-(pyridin-2-yl)isoxazole-5-carboxamide] | 7.03 (≈ 3.48 µg/mL) | 34.7 | 0.665 | 59.4 | 2.55 | 50.6 | 6 | 6.45 | 3.6 | 7.54 | 1.14 | > 50 | 0.96 | 24.1 | 69.7 | 1.2 | 19.3 | 74.9 | > 50 | < 1 | Vz [3]: 1.45 L/kg; Last time point for AUClast [3]: 24 h; AUC(0-inf) [12]: 45300 ng·h/mL; AUC(0-t) [12]: 44100 ng·h/mL; Cmax [12]: 5180 ng/mL; Tmax [12]: 1 h; half-life [12]: 4.54 h
3 | O=C(Nc1cnn(Cc2ccc(C(F)(F)F)cc2C(F)(F)F)c1)c1cc(-c2cnccn2)on1 [Compound 114, N-(1-(2,4-bis(trifluoromethyl)benzyl)-1H-pyrazol-4-yl)-5-(pyrazin-2-yl)isoxazole-3-carboxamide] | 1.17 (≈ 0.564 µg/mL) | 25 | 0.923 | 69.7 | 14 | 43.3 | > 50 | > 50 | > 50 | > 50 | > 50 | > 50 | 3.55 | 6.5 | 90.4 | 2.75 | 8.4 | 86.8 | > 50 | < 1 | Vz [3]: 10.5 L/kg; Last time point for AUClast [3]: 24 h; AUC(0-inf) [12]: 11900 ng·h/mL; AUC(0-t) [12]: 10300 ng·h/mL; Cmax [12]: 899 ng/mL; Tmax [12]: 0.5 h; half-life [12]: 8.66 h
4 | Cc1c(NC(=O)c2cc(-c3ccco3)on2)cnn1Cc1ccc(C(F)(F)F)cc1C(F)(F)F [Compound 93, N-(1-(2,4-bis(trifluoromethyl)benzyl)-5-methyl-1H-pyrazol-4-yl)-5-(furan-2-yl)isoxazole-3-carboxamide] | 2.92 (≈ 1.41 µg/mL) | 20.2 |  | 69.8 |  |  | > 50 | > 50 | > 50 | > 50 | > 50 | > 50 | 1.27 | 18.2 | 74.1 |  | 34.7 | 51.1 | > 50 | < 1 | half-life at 1 μM [2, 14]: 1.15 h; half-life at 1 μM [11, 15]: 0.667 h
5 | C[C@H](c1ccc(C(F)(F)F)cc1C(F)(F)F)n1cc(NC(=O)c2nnc(-c3cnccn3)s2)cn1 [Compound 152, (R)—N-(1-(1-(2,4-bis(trifluoromethyl)phenyl)ethyl)-1H-pyrazol-4-yl)-5-(pyrazin-2-yl)-1,3,4-thiadiazole-2-carboxamide] | 28.1 (≈ 14.4 µg/mL) | 7.2 | 3.2 | 86.4 |  |  | > 50 | > 50 | > 50 | > 50 | > 50 | > 50 | 2.32 | 10 | 84.4 | 2.12 | 10.9 | 82.6 | > 50 | < 1 | 
